According to US20130071933A1, “CITRUS SHOOT REGENERATION COMPOSITIONS, METHODS, AND SYSTEMS” (priority 2011, published 2013):
“Also recorded” adds a separate entry of the source.

Columns and labels:
[1] = system: cotyledonary explants of Jute; conditions: cited from earlier work
[2] = system: mature internodal stem segments of sweet orange cv. Hamlin; assay: Culture of explants on DBA3 medium with surfactant: fresh weight and shoot regeneration; assay type: cell-based, Citrus sinensis; conditions: for % Organogenic explants / Total shoot yield: 60 explants/treatment
Experimental: Mature budwood collected from C. sinensis cv. Hamlin from virus-free greenhouse material were grafted onto seedlings of rough lemon (C. jambhiri Lush.) and maintained in a greenhouse (20-27° C.). The developing shoots were allowed to grow as one, two and three flushes, each used separately for experimental studies. Shoots (approx. 20 cm in length) were pruned from each plant and used for explant preparation. The stems were stripped of their thorns and leaves, surface-sterilized in 70% ethanol (1 min), disinfected for 20 min in 20% (v/v) domestic bleach solution containing 0.2% (v/v) Tween® 20 and washed five times with sterile distilled water. Internodal stem explants were cut transversely into 1 cm long segments and placed horizontally onto the culture media with the cut ends submerged (approx. 2 mm) into the medium. […] The non-ionic surfactants were dissolved in sterile-distilled water and then filter-sterilized before adding to the medium after autoclaving, along with filter-sterilized Gamborg B5 vitamins and de-proteinized coconut water. Cultures were maintained in the light (60 μm m^−2s^−1 cool light fluorescent tubes) under a 16 h photoperiod at 28±2° C. and subcultured at 21-28 d intervals. After 10 weeks, the weight of each explant and the number of adventitious shoots was recorded. This experiment was repeated for each of the first three flushes of shoots to compare growth and shoot regeneration efficiencies.

[3] = system: shoots regenerated from mature stem segments of sweet orange cv. Hamlin; assay: Grafting of regenerated adventitious shoots onto rough lemon rootstock: survival and growth; assay type: in vivo, Citrus sinensis
From the text: Adventitious shoots (0.5 cm long) were excised from mature stem segments and grafted in vivo onto rough lemon seedlings. Briefly, rough lemon seedlings (approx. 25-30 cm in height) were decapitated (approx. 15 cm above ground) where the diameter of the stem equals the width of the shoot (2-3 mm). A 5 mm deep longitudinal cut is made into the cambium layer of the seedling into which the shoot is wedged and the grafted area sealed with Parafilm. The shoot is wounded, each side, by removing approx. 1 mm of the surface with a scalpel blade in the same plane as the exposed cambium layer to promote growth of the new shoot. The whole plant is covered with a clear plastic bag and maintained in the light (100 μm^−2s^−1 cool light fluorescent tubes) under a 16 h photoperiod at 22-24° C. After approx. 21 d, the grafted shoot starts to grow and the bag is gradually opened to aid acclimatization. The plant is then transferred to the greenhouse approx. 28 d later and allowed to grow to maturity.
Shoots (approx. 1 cm in length) were excised from explants and grafted onto a rough lemon rootstock to allow growth and development. […] This phenotype of growth and development is typical of a mature citrus tree as observed in previous studies on the tissue culture of mature internodal stem segments (Cervera et al., 1998, Transgenic Res 7: 51-59).

[4] = Flush 1, surfactant 0.001%, 10 weeks of culture
[5] = Flush 1, surfactant 0.01%, 10 weeks of culture
[6] = Flush 1, surfactant 0.1%, 10 weeks of culture
[7] = Flush 1, surfactant 0.5%, 10 weeks of culture
[8] = Flush 2, surfactant 0.001%, 10 weeks of culture
[9] = Flush 2, surfactant 0.01%, 10 weeks of culture
[10] = Flush 2, surfactant 0.1%, 10 weeks of culture
[11] = Flush 2, surfactant 0.5%, 10 weeks of culture
[12] = Flush 3, surfactant 0.001%, 10 weeks of culture
[13] = Flush 3, surfactant 0.01%, 10 weeks of culture
[14] = Flush 3, surfactant 0.1%, 10 weeks of culture
[15] = Flush 3, surfactant 0.5%, 10 weeks of culture
[16] = shoots from explants cultured at 0.001-0.1% (v/v), rough lemon rootstock

polyoxyethylene (20) sorbitan monolaurate [Tween® 20]
fresh weight gain ([1]; 0.001-0.01% (v/v)): significantly increased | number of regenerants ([1]; 0.001-0.01% (v/v)): significantly increased | growth ([1]; 0.5% (v/v)): inhibitory to growth | shoot production ([1]; 0.5% (v/v)): inhibited | shoot regeneration of jute cotyledons [1]: able to promote shoot regeneration | Mean fresh weight [2, 4]: 273 ± 15 mg | Mean number of shoots per explant [2, 4]: 0.23 ± 0.08 | % Organogenic explants [2, 4]: 15% | Total shoot yield [2, 4]: 14 | Mean fresh weight [2, 5]: 218 ± 12 mg | Mean number of shoots per explant [2, 5]: 0.25 ± 0.07 | % Organogenic explants [2, 5]: 18.5% | Total shoot yield [2, 5]: 15 | Mean fresh weight [2, 6]: 269 ± 13 mg | Mean number of shoots per explant [2, 6]: 0.31 ± 0.08 | % Organogenic explants [2, 6]: 23% | Total shoot yield [2, 6]: 19 | Mean fresh weight [2, 7]: 253 ± 12 mg | Mean number of shoots per explant [2, 7]: 0.18 ± 0.06 | % Organogenic explants [2, 7]: 15% | Total shoot yield [2, 7]: 11 | Mean fresh weight [2, 8]: 240 ± 15 mg | Mean number of shoots per explant [2, 8]: 0.22 ± 0.07 | % Organogenic explants [2, 8]: 15% | Total shoot yield [2, 8]: 13 | Mean fresh weight [2, 9]: 260 ± 13 mg | Mean number of shoots per explant [2, 9]: 0.20 ± 0.07 | % Organogenic explants [2, 9]: 13.5% | Total shoot yield [2, 9]: 12 | Mean fresh weight [2, 10]: 302 ± 19 mg | Mean number of shoots per explant [2, 10]: 0.22 ± 0.07 | % Organogenic explants [2, 10]: 17% | Total shoot yield [2, 10]: 13 | Mean fresh weight [2, 11]: 250 ± 13 mg | Mean number of shoots per explant [2, 11]: 0.17 ± 0.06 | % Organogenic explants [2, 11]: 13.5% | Total shoot yield [2, 11]: 10 | Mean fresh weight [2, 12]: 193 ± 8 mg | Mean number of shoots per explant [2, 12]: 0.07 ± 0.03 | % Organogenic explants [2, 12]: 7% | Total shoot yield [2, 12]: 4 | Mean fresh weight [2, 13]: 161 ± 7 mg | Mean number of shoots per explant [2, 13]: 0.05 ± 0.03 | % Organogenic explants [2, 13]: 5% | Total shoot yield [2, 13]: 3 | Mean fresh weight [2, 14]: 155 ± 7 mg | Mean number of shoots per explant [2, 14]: 0.08 ± 0.04 | % Organogenic explants [2, 14]: 8.5% | Total shoot yield [2, 14]: 5 | Mean fresh weight [2, 15]: 130 ± 6 mg | Mean number of shoots per explant [2, 15]: 0.05 ± 0.03 | % Organogenic explants [2, 15]: 5% | Total shoot yield [2, 15]: 3 | weight of explants compared to medium without surfactant ([2]; all three flushes of growth): no significant difference | growth of vitrified shoots following grafting ([3]; shoots from explants cultured on DBA3 with surfactant (0.01-0.5% (v/v))): failed to graft successfully in vivo; also recorded: all failed to initiate growth following grafting

polyethylene glycol p-(1,1,3,3-tetramethylbutyl)-phenyl ether [Triton® X-100]
growth of explants ([1]; 0.001% (v/v)): increased also the growth | state of shoots after transfer to shoot elongation medium ([1]; 0.001%, after 14-21 days): became necrotic | shoot regeneration of jute cotyledons [1]: able to promote shoot regeneration | growth and regeneration of explants ([1]; concentrations above 0.001% (v/v)): inhibited the growth and regeneration | Mean fresh weight ([2]; 0.001% (v/v) in DBA3, first flush): 347±24 mg f. wt. | number of shoots per explant and number of explants giving shoots compared to the control ([2]; 0.001% (v/v) in DBA3, first two flushes): lower compared to the control | Mean fresh weight ([2]; 0.001% (v/v) in DBA3, second flush): 309±23 mg f. wt. | fresh weight gain, number of shoots per explant and number giving shoots compared to DBA3 without surfactant ([2]; 0.1-0.5% (v/v) in DBA3): significantly (P<0.05) reduced | shoot regeneration ([2]; 0.5% (v/v) in DBA3): failed to regenerate shoots | Mean fresh weight [2, 4]: 347 ± 24 mg | Mean number of shoots per explant [2, 4]: 0.13 ± 0.06 | % Organogenic explants [2, 4]: 10% | Total shoot yield [2, 4]: 8 | Mean fresh weight [2, 5]: 254 ± 13 mg | Mean number of shoots per explant [2, 5]: 0.18 ± 0.07 | % Organogenic explants [2, 5]: 13.5% | Total shoot yield [2, 5]: 11 | Mean fresh weight [2, 6]: 153 ± 7 mg | Mean number of shoots per explant [2, 6]: 0.08 ± 0.04 | % Organogenic explants [2, 6]: 6.5% | Total shoot yield [2, 6]: 5 | Mean fresh weight [2, 7]: 75 ± 3 mg | Mean number of shoots per explant [2, 7]: 0.00 ± 0.00 | % Organogenic explants [2, 7]: 0% | Total shoot yield [2, 7]: 0 | Mean fresh weight [2, 8]: 309 ± 23 mg | Mean number of shoots per explant [2, 8]: 0.07 ± 0.03 | % Organogenic explants [2, 8]: 6.5% | Total shoot yield [2, 8]: 4 | Mean fresh weight [2, 9]: 264 ± 14 mg | Mean number of shoots per explant [2, 9]: 0.10 ± 0.05 | % Organogenic explants [2, 9]: 6.5% | Total shoot yield [2, 9]: 6 | Mean fresh weight [2, 10]: 158 ± 7 mg | Mean number of shoots per explant [2, 10]: 0.05 ± 0.03 | % Organogenic explants [2, 10]: 5% | Total shoot yield [2, 10]: 3 | Mean fresh weight [2, 11]: 85 ± 4 mg | Mean number of shoots per explant [2, 11]: 0.00 ± 0.00 | % Organogenic explants [2, 11]: 0% | Total shoot yield [2, 11]: 0 | Mean fresh weight [2, 12]: 135 ± 7 mg | Mean number of shoots per explant [2, 12]: 0.08 ± 0.04 | % Organogenic explants [2, 12]: 6.5% | Total shoot yield [2, 12]: 5 | Mean fresh weight [2, 13]: 126 ± 6 mg | Mean number of shoots per explant [2, 13]: 0.02 ± 0.02 | % Organogenic explants [2, 13]: 1.5% | Total shoot yield [2, 13]: 1 | Mean fresh weight [2, 14]: 89 ± 3 mg | Mean number of shoots per explant [2, 14]: 0.00 ± 0.00 | % Organogenic explants [2, 14]: 0% | Total shoot yield [2, 14]: 0 | Mean fresh weight [2, 15]: 61 ± 8 mg | Mean number of shoots per explant [2, 15]: 0.00 ± 0.00 | % Organogenic explants [2, 15]: 0% | Total shoot yield [2, 15]: 0 | shoots survived / shoots grafted [3, 16]: 5/15 | survival rate of shoots following grafting [3, 16]: 33%
